For one compound, activation results are on record in PMC5630390, “7-ketocholesterol and 27-hydroxycholesterol decreased doxorubicin sensitivity in breast cancer cells: estrogenic activity and mTOR pathway” (Oncotarget, 2017).

The assay deals with T1, ERα (Homo sapiens, UniProt P03372).
T1 construct: gene ESR1; recombinant human ERα expressed in yeast with a LacZ reporter construct
T1 sequence (P03372 1-595): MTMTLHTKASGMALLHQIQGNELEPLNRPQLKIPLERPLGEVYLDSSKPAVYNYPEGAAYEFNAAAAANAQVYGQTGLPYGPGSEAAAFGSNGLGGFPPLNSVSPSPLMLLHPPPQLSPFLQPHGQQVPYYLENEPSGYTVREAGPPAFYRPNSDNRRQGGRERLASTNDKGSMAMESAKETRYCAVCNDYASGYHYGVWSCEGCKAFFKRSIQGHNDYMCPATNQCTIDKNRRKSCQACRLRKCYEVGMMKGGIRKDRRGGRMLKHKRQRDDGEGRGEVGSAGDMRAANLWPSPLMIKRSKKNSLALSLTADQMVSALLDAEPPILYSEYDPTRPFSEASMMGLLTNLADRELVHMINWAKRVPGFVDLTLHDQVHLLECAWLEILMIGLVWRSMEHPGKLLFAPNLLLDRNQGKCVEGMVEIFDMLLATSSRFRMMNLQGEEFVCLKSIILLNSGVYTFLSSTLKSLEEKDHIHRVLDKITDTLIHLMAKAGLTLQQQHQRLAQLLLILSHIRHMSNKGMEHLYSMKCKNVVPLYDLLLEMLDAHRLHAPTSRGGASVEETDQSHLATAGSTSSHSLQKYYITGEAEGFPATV
Put plainly: yeast ER reporter (YES) assay, agonist mode, […] h; weak, […] stimulation at […]. Type of assay: cell-based.

For `CC(C)CCC[C@@H](C)[C@H]1CC[C@H]2[C@@H]3C(=O)C=C4C[C@@H](O)CC[C@]4(C)[C@H]3CC[C@]12C` [7-KC, 7-ketocholesterol], the activation at 50 µM came to 14%.
